From patent US9451771B2, “Compositions and methods to attract the brown marmorated stink bug (BMSB), Halyomorpha halys” (United States of America as Represented by the Secretary of …, priority 2012, dated 2016) come the findings set out here.

The structures appear in SMILES notation.

The assay deals with brown marmorated stink bug (BMSB), Halyomorpha halys. Kind of assay: Field trials of experimental pheromone constituents, baited black pyramid traps. The class given is in vivo. The text has this: Field Bioassays. Field Trials of Experimental Pheromone Constituents: Pyramid traps based on dimensions previously used for native stink bugs (Leskey and Hogmire 2005, Hogmire and Leskey 2006) and for brown marmorated stink bugs (Leskey et al. 2012c) were used for all trials. […] Each panel was 1.22 m high, 52 cm wide at the base, and 7 cm wide at the top. Collection jars were constructed based on previously published dimensions (Hogmire and Leskey 2006) with internal cone opening of 1.6 cm with trimmed wire edging to reduce escape. In addition, a Hercon Vaportape™ II (Hercon Environmental, Emigsville, Pa.) was added as a killing agent to prevent escape from traps. In a preliminary study, addition of a killing agent increased trap captures ˜250%. Traps were deployed ˜5 meters from the border of apple and pear orchards at the Appalachian Fruit Research Station or in the border area between wood lots and row crops in Kearneysville, W. Va., Shepherdstown, W. Va., Keedysville, Md., and Beltsville, Md. Traps were spaced ˜50 meters apart. Traps were baited with compounds identified from headspace collections of male BMSB, synthesized and formulated into gray rubber septa or left unbaited.
Fourteen trials were conducted between 19 Apr. to 20 Oct. 2011 (Table 3) and four trials between 20 Mar. to 10 Oct. 2012 (Table 4). Traps were checked a minimum of twice weekly and the treatments were re-randomized at each collection.
All adults and nymphs were removed from traps and recorded. Hercon Vaportape™ strips were changed at four week intervals and lures were changed at two week intervals. Comparisons of adult and nymphal captures used the SAS GLM procedure to evaluate effect of treatment and replicate followed by Tukey's HSD if the model was significant. Appropriate transformations were used to stabilize normality if needed. The effect of sex was dropped from all models because it was never a significant factor.

Setting [1] is: AFRS 2011, Trial One, 19 April-10 May.
[2] abbreviates: AFRS 2011, Trial Seven, 8-19 August.
Where [3] appears, read: AFRS 2011, Trial Ten, 19 Sept.-4 Oct.
Setting [4] is: Beltsville 2011, Trial One, 19 April-10 May.

In the case of `CCC\C=C/C=C/C=C/C(=O)OC` [Lure #3, Methyl (2E,4E,6Z)-decatrienoate], the “Mean number BMSB adults (±SE) captured” value is 0.00 ± 0.00 per trap per sample under setting [1], 1.97 ± 0.37a per trap per sample under setting [2], 22.76 ± 4.41a per trap per sample under setting [3] and 0.02 ± 0.02ab per treatment under setting [4]. The “Mean number BMSB nymphs (±SE) captured” value reads like this: under setting [1], 0.00 ± 0.00 per trap per sample; under setting [2], 34.55 ± 5.85a per trap per sample; under setting [3], 1.24 ± 0.34a per trap per sample; under setting [4], 0.00 ± 0.00 per treatment.
